Laboratory results as given in ChEMBL document CHEMBL4342431, “Synthesis and antileishmanial evaluation of thiazole orange analogs” (Bioorg Med Chem Lett, 2020).
pIC50: −log10 of the molar value. Calls of active or inactive are those of the source. The rule behind the calls is not given here.

Legend:
J774 = experiment: Cytotoxicity against mouse J774 cells assessed as reduction in cell viability incubated for 72 hrs by MTT assay; assay type: cell-based; settings: J774, 72 h
Leishmania donovani [1] = experiment: Antileishmanial activity against Leishmania donovani Ld1s intracellular amasitgote infected in J774 cells incubated for 72 hrs by non-radioactive cell proliferation assay; assay type: functional, organism-based; settings: J774, 72 h
[2] = Selectivity index, ratio of IC for mouse J774 cells to IC50 for Leishmania donovani Ld1s promastigotes; assay type: toxicity; settings: J774 cells versus Leishmania donovani Ld1s promastigotes, read-out: Ratio IC50
[3] = Binding affinity to 5'-dCCAAAAGTTTTG CTCT CAAAACTTTTGG-3' DNA (unknown origin) assessed as change in melting temperature at 2:1 ligand and DNA by specrophotometry
[4] = Binding affinity to 5'-dCCAAAATTTTG CTCT CAAAATTTTGG-3' DNA (unknown origin) assessed as change in melting temperature at 2:1 ligand and DNA by specrophotometry
Leishmania donovani [5] = experiment: Antileishmanial activity against Leishmania donovani LV82 amastigotes infected in mouse peritoneal microphage incubated for 72 hrs by DAPI staining based assay; assay type: functional, organism-based; settings: LV82, 72 h
[6] = Selectivity index, ratio of IC50 for mouse peritoneal macrophages to IC50 for Leishmania donovani LV82 intracellular amastigotes; assay type: toxicity, cell-based; settings: read-out: Ratio IC50
Leishmania donovani [7] = experiment: Antileishmanial activity against Leishmania donovani LV82 promastigotes infected in BALB/c mouse assessed as reduction in liver parasitemia at 1.2 mg/kg, ip administered for 5 days by Geimsa staining based assay relative to control; assay type: functional; parameters: scale not given: the % may be the effect or the level left
Leishmania donovani [8] = experiment: Antileishmanial activity against Leishmania donovani LV82 intracellular amastigotes infected in murine peritoneal macrophage incubated for […] by beta-lactamase reporter gene based spectrophotometry; assay type: functional, organism-based
[9] = Binding affinity to 5'-dCCAAAATTTTG CTCT CAAAATTTTGG-3' DNA (unknown origin) assessed as DNA intercalation incubated for 5 mins by circular dichroism method

ΔTm [3] [°C]	ΔTm [4] [°C]	pIC50 (Leishmania donovani [5])	pIC50 (Leishmania donovani [8])	Activity [9]	Compound	pIC50 (J774)	pIC50 (Leishmania donovani [1])	selectivity ratio [2]	selectivity ratio [6]	Activity (Leishmania donovani [7]) [%]
					CN1/C(=C/c2cc[n+](C)c3cccc(Cl)c23)Sc2ccccc21	6.89	7.80	8.1		
4	3				Cc1cccc2c1c(/C=C1\Sc3ccccc3N1C)cc[n+]2C	6.92	7.62	5		
4	4				Cc1ccc2c(/C=C3\Sc4ccccc4N3C)cc[n+](C)c2c1	6.92	7.43	3.2		
					CN1/C(=C/c2cc[n+](C)c3ccc(Cl)cc23)Sc2ccccc21	6.51	7.51	10		
< 1	< 1	5.77			CN1/C(=C/c2cccc[n+]2C)Sc2ccccc21	5.60	6.54	8.6		
					CCC[n+]1ccc(/C=C2\Sc3ccccc3N2C)c2ccccc21	6.85	7.89	11		
					CN1/C(=C/c2cc[n+](C)c3ccc(-c4ccccc4)cc23)Sc2ccccc21	6.74	7.43	4.9		
3	4				Cc1cccc2c(/C=C3\Sc4ccccc4N3C)cc[n+](C)c12	6.92	7.52	4		
1	2				CN1C=CS/C1=C\c1cc[n+](C)c2ccccc12	5.82	6.80	9.4		
		7.14			CC[n+]1ccc(/C=C2\Sc3ccccc3N2C)c2ccccc21	6.77	7.92	14		
2	3				CN1/C(=C/c2cc[n+](C)c3cccc(-c4ccccc4)c23)Sc2ccccc21	6.80	7.38	3.8		
4	4				CN1/C(=C/c2cc[n+](C)c3ccccc23)Sc2ccccc21 [listing 1 of 2 here]					
					CN1/C(=C/c2cc[n+](C)c3cc(Cl)ccc23)Sc2ccccc21	6.74	7.47	5.3		
			7.68		CN1/C(=C/c2cc[n+](C)c3ccccc23)Sc2ccccc21.Cc1ccc(S(=O)(=O)[O-])cc1				25	48
					CN1/C(=C/c2cc[n+](Cc3ccccc3)c3ccccc23)Sc2ccccc21	6.72	7.59	7		
					COc1cc([C@@H]2c3cc4c(cc3[C@H](O)[C@H]3COC(=O)[C@H]23)OCO4)cc(OC)c1OC [PODOFILOX]	7.64				
					COc1cccc2c1c(/C=C1\Sc3ccccc3N1C)cc[n+]2C	7.07	7.60	3.4		
					N=C(N)c1ccc(OCCCCCOc2ccc(C(=N)N)cc2)cc1 [PENTAMIDINE]		5.51			
					COc1ccc2c(c1)c(/C=C1\Sc3ccccc3N1C)cc[n+]2C	6.70	7.55	7.1		
< 1	1	6.02			CN1C=CC(=Cc2sc3ccccc3[n+]2C)C=C1	5.55	6.85	20		
					COc1cccc2c(/C=C3\Sc4ccccc4N3C)cc[n+](C)c12	7.23	7.52	2		
4	5			Active	Cc1ccc2c(c1)c(/C=C1\Sc3ccccc3N1C)cc[n+]2C	6.70	7.51	6.5		
					CN1/C(=C/c2cc[n+](C)c3cc(-c4ccccc4)ccc23)Sc2ccccc21	7.16	7.89	5.3		
					COc1ccc2c(/C=C3\Sc4ccccc4N3C)cc[n+](C)c2c1	6.85	7.46	4		
					CN1/C(=C/c2cc[n+](C)c3c(-c4ccccc4)cccc23)Sc2ccccc21	6.70	7.62	8.3		
					CN1/C(=C/c2cc[n+](C)c3ccccc23)Sc2ccccc21 [listing 2 of 2 here]	6.72	7.85	14		
